Laboratory results published in paper PMC5428354, “Screening of a natural compound library identifies emodin, a natural compound from Rheum palmatum Linn that inhibits DPP4” (PeerJ, 2017).
Values joined by “and” are separate entries in the source; they are usually repeats but may differ in a detail not shown here. Equal values may be shown once. Read-outs that look alike come from different tables or passages of the source.

Tests used:
F344/N rats = tested on: F344/N rats; design: method as in National Toxicology Program, 2001; Wang & Chung, 1997; settings: male F344/N rats, 280–2,500 ppm; ref National Toxicology Program, 2001; Wang & Chung, 1997; cited from earlier work
DPP9 [1] = biological target: T1, DPP9 (Homo sapiens, UniProt Q86TI2); experiment: DPP9 activity assay (BPS Bioscience kit); format: biochemical; settings: 100 µM, Well #1-#3
T1 construct: purchased BPS Bioscience 800209
T1 sequence (Q86TI2 whole entry): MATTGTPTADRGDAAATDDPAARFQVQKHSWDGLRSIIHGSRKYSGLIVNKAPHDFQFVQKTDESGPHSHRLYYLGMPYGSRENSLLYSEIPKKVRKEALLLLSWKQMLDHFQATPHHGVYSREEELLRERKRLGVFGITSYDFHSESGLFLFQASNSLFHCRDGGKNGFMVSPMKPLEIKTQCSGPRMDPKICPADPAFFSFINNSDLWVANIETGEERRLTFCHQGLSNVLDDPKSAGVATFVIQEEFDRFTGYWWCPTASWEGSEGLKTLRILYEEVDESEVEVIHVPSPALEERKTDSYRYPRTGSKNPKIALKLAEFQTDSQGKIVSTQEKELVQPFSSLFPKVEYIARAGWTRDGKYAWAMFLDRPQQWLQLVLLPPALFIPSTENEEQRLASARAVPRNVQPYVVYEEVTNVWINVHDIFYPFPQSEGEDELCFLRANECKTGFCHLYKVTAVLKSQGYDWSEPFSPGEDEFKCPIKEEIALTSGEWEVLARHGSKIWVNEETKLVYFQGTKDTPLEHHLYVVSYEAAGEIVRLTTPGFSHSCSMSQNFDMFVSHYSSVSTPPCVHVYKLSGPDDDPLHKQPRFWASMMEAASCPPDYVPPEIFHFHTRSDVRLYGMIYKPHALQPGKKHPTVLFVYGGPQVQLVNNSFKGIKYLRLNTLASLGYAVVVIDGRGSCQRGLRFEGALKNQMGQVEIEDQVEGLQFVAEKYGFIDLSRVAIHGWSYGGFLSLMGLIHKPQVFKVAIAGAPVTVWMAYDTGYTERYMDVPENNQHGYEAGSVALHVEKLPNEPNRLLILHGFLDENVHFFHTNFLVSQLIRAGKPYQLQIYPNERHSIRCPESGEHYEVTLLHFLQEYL

GLP-1 [2] = experiment: Plasma GLP-1 activity after oral emodin; format: in vivo, mice; design: GLP-1: unit not given here; settings: 30 mg/kg P.O.; for GLP-1: ob/ob mice, individual animals
Experimental: In the subsequent experiment, emodin (30 mg/kg, P.O.) was administered on Balb/C mice (n = 5) or ob/ob (-/-) mice (n = 5). […] This downregulation maintained 2 h in Balb/C mice, and 4 h in ob/ob (-/-) mice, which rebounded afterwards (Fig. 5A). […] Plasma GLP-1 activity was also measured.

DPP9 [3] = biological target: T1, DPP9; experiment: DPP9 activity assay (BPS Bioscience kit); format: biochemical; settings: tested at 100 µM
Experimental: A DPP9 assay kit was purchased from BPS Bioscience (Cat# 800209), and the assay protocol was followed to test for inhibitory activity against DPP9. Briefly, DPP substrate 1 was diluted to make a 100 µM stock solution, and DPP9 protein was diluted in DPP assay buffer to 2 ng/µl (20 ng/reaction). For the tested compounds, 10 µl of diluted DPP9 protein, 5 µl of diluted DPP substrate 1, 84 µl of DPP assay buffer and 1 µl of inhibitor were added into the assay system for a total volume of 100 µl. […]

B6C3F1 mice = tested on: B6C3F1 mice; design: method as in National Toxicology Program, 2001; Wang & Chung, 1997; settings: 280–2,500 ppm, ref National Toxicology Program, 2001, Wang & Chung, 1997, cited from earlier work
GLP-1 [4] = experiment: Plasma GLP-1 activity after oral emodin; format: in vivo, mice; design: unit not given here; settings: 30 mg/kg P.O., C57BL/6 (head), individual animals
[5] = Blood glucose levels after oral emodin; format: in vivo, mice; design: Blood glucose: unit not given here; settings: 30 mg/kg P.O.; for Blood glucose: ob/ob mice, individual animals
Experimental: (§1) Balb/c mice (male, six weeks) and ob/ob (-/-) mice (male, six weeks) were purchased from the Shanghai SLAC Laboratory Animal Co. Ltd. (Shanghai, China) and maintained in an air-conditioned room at 20–25 °C under a 12 h dark/light cycle and fed certified standard chow and tap water ad libitum. Experiments were conducted in compliance with the Guide for the Care and Use of Laboratory Animals. Mice were orally administered with emodin (3, 10, or 30 mg /kg) and had their blood collected at 0.5, 1, 2, and 4 h after emodin treatment. The samples were subjected to plasma isolation immediately after collection. Plasma samples were tested for DPP4 activity with a DPP4-Glo assay kit (Promega, Beijing, China) according to the manufacturer’s protocol. The experimental protocol was approved by Animal Care and Use Committee of Xiamen University(XM2015030514).
(§2) To test the inhibitory activity of emodin on DPP4 in vivo, an animal experiment was conducted by oral administration of emodin (3, 10 and 30 mg/kg, P.O., n = 5) to Balb/c mice, followed by plasma collection at different time points to measure DPP4 activity in the blood. Plasma samples were collected at 0, 0.5, 1, 2 and 4 h after the oral dose of emodin, and plasma DPP4 activity was measured with a DPP4-Glo assay kit. […] The lowest does of emodin (3 mg/kg) decreased plasma DPP4 activity from baseline, although these levels rebounded after 1 h, whereas 10 and 30 mg/kg doses of emodin decreased plasma DPP4 activity and maintained the lower levels until 2 h post-treatment (Fig. 4). This dose-dependent manner is probably due to the pharmacokinetics of emodin, and 10 and 30 mg/kg have maximized the pharmacokinetic coverage, while 3 mg/kg emodin is only sufficient to maintain 1 h DPP4 inhibition in vivo. In the subsequent experiment, emodin (30 mg/kg, P.O.) was administered on Balb/C mice (n = 5) or ob/ob (-/-) mice (n = 5). The DPP4 activity, blood glucoselevels and GLP-1 activity were tested 0, 1, 2, 4, 8 h after administration. […] This downregulation maintained 2 h in Balb/C mice, and 4 h in ob/ob (-/-) mice, which rebounded afterwards (Fig. 5A). […] Plasma GLP-1 activity was also measured.

DPP4 [6] = biological target: T2, DPP4 (Homo sapiens, UniProt P27487); experiment: DPP4 activity assay (DPP4 inhibitor screening assay kit, Cayman); format: biochemical; design: purchased Cayman Chemical, Ann Arbor, MI, USA; settings: for remaining activity at 10 µM: control mean 100.0;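 as to all read-outs here: fluorescence read at excitation 360 nm and emission 460 nm after the enzyme reaction ran 30 min at 37 °C in a 96-well plate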
Target sequence in this assay (P27487 whole entry): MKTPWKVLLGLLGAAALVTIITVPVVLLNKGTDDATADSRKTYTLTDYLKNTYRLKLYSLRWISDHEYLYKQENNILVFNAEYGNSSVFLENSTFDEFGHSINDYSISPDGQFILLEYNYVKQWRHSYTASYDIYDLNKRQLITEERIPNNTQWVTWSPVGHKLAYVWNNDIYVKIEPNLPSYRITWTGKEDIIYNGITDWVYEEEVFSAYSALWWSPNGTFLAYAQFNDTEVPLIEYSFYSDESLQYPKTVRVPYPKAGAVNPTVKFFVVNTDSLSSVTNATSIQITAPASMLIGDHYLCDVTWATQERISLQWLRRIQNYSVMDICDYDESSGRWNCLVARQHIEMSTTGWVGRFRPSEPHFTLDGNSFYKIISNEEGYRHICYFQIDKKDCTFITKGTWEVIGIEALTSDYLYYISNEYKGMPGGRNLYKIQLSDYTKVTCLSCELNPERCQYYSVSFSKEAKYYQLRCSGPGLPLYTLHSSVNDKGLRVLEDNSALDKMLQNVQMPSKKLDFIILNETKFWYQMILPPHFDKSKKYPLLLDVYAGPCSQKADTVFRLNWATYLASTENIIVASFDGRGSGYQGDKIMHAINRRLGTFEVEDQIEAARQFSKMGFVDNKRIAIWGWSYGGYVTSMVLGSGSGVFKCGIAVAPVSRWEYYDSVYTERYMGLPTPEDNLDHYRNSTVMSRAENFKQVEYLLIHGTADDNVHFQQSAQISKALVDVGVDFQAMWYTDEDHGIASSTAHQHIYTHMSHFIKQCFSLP

plasma DPP4 activity = biological target: T3, plasma DPP4 activity (Mus musculus, UniProt P28843); experiment: Plasma DPP4 activity after oral emodin (DPP4-Glo assay kit); format: in vivo, mice; settings: individual animals; for plasma DPP4 activity, raw signal: Balb/c mice; for DPP4 activity, raw signal: ob/ob mice
T3 construct: followed by plasma collection at different time points to measure DPP4 activity in the blood; from tissue; host or cells: mouse plasma (Balb/c and ob/ob mice)
T3 sequence (P28843 37-760 limits assumed): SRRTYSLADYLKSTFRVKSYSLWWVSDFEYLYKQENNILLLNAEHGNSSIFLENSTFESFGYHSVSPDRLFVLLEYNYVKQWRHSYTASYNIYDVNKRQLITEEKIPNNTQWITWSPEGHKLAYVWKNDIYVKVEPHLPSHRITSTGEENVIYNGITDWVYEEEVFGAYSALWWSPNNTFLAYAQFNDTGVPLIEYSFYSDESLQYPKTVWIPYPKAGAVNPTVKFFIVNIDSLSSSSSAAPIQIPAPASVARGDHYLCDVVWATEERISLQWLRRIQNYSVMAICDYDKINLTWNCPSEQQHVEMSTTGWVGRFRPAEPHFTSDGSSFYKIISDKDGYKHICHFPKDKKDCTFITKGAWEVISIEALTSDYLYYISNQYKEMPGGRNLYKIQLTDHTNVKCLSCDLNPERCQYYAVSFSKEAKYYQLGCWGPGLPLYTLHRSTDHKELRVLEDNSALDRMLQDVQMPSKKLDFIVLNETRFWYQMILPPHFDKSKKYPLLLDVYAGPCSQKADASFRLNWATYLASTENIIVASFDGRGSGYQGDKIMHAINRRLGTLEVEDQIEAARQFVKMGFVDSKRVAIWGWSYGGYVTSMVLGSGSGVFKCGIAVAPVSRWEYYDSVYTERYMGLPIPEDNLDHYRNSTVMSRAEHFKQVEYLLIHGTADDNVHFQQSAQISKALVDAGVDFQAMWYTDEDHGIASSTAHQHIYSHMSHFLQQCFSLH
Experimental: as §1, §2

DPP4 [7] = biological target: T2, DPP4; experiment: Dialysis assay followed by DPP4 assay; format: biochemical; settings: 0 hr of dialysis; triplicate
Target sequence in this assay (P27487 whole entry, species assumed): as the sequence (P27487 whole entry) above

In the case of `Cc1cc(O)c2c(c1)C(=O)c1cc(O)cc(O)c1C2=O` [Emodin], the carcinogenic activity (F344/N rats) is listed as “no evidence of carcinogenic activity”, the “DPP9 assay, Emission (450 nm)” value (DPP9 [1]) is listed as 47887 and 46825 and 46023 and the DPP9 activity (DPP9 [1]; DMSO = Ctrl) is listed as 98.3 % of Ctrl and 96.1 % of Ctrl and 94.5 % of Ctrl. For the same compound, the “effect on plasma GLP-1 activity” value (GLP-1 [2]; Balb/C and ob/ob (-/-) mice) was “marginal effect”, the GLP-1 (GLP-1 [2]; 0 hours (baseline)) was 1.6192 and 1.6714 and 1.7758 and 1.3843 and 3.4984 and the GLP-1 (GLP-1 [2]; 1 hours) was 2.9503 and 1.4365 and 2.8459 and 1.8541 and 2.8981. For the same compound, the GLP-1 (GLP-1 [2]; 2 hours) was 3.5245 and 3.4201 and 0.5491 and 2.4022 and 2.2456, the GLP-1 (GLP-1 [2]; 4 hours) was 0.9667 and 2.1673 and 1.2538 and 1.5148 and 2.9503 and the GLP-1 (GLP-1 [2]; 8 hours) was 3.655 and 0.784 and 1.2277 and 3.1852. For the same compound, the “activity against DPP9” value (DPP9 [3]) was “without inhibiting”, the carcinogenic activity (B6C3F1 mice; female B6C3F1 mice) was “no evidence of carcinogenic activity” and the nephropathy (B6C3F1 mice; female mice) was “increased incidences”. The renal tubule pigmentation (B6C3F1 mice; male and female mice) was “increased incidences”, the GLP-1 (GLP-1 [4]; 0 hours (baseline)) was 2.4022 and 3.1852 and 3.2635 and 2.9242 and 1.0711 and the GLP-1 (GLP-1 [4]; 1 hours) was 2.5849 and 2.8981 and 2.4805 and 2.9503 and 0.9928. For the same compound, the GLP-1 (GLP-1 [4]; 2 hours) was 2.6371 and 2.5849 and 2.9242 and 1.3843 and 2.0629, the GLP-1 (GLP-1 [4]; 4 hours) was 2.6893 and 3.1069 and 3.0808 and 3.2113 and 0.4708 and the GLP-1 (GLP-1 [4]; 8 hours) was 1.9063 and 3.394 and 3.3157 and 2.0107 and 0.2881. For the same compound, the “effect on blood glucose levels from baseline” value ([5]; both Balb/C mice and ob/ob (-/-) mice) was “significantly downregulated”, the “time for which downregulation of blood glucose was maintained” value ([5]; both Balb/C mice and ob/ob (-/-) mice, baseline again at 8 h) was 4 h and the Blood glucose ([5]; 0 hours (baseline)) was 18.6 and 13.3 and 11.5 and 12.1 and 14.4. For the same compound, the Blood glucose ([5]; 1 hours) was 9.4 and 11.3 and 13.1 and 10.9 and 12, the Blood glucose ([5]; 2 hours) was 11 and 9.2 and 8.1 and 9.5 and 10.9 and the Blood glucose ([5]; 4 hours) was 8 and 10.3 and 8.2 and 7.3 and 9.2. The Blood glucose ([5]; 8 hours) was 14.7 and 14.2 and 13.9 and 12.8 and 13.1, the inhibition at 10 µM (DPP4 [6]; 10 µM, library screen) was greater than 50% and the remaining activity at 10 µM (DPP4 [6]; 0.5 h, 10 µM, Figure 1A raw data, read-out: DPP4 activity in library screen, Exp 1) was 22%. The remaining activity at 10 µM (DPP4 [6]; 0.5 h, 10 µM, Figure 1A raw data, read-out: DPP4 activity in library screen, Exp 2) was 22.6%, the remaining activity at 10 µM (DPP4 [6]; 0.5 h, 10 µM, Figure 1A raw data, read-out: DPP4 activity in library screen, Exp 3) was 41.2% and the remaining activity at 10 µM (DPP4 [6]; 0.5 h, 10 µM, mean of Exp 1-3, read-out: DPP4 activity in library screen, Mean) was 28.6%. The remaining activity at 0.39 µM (DPP4 [6]; 0.5 h, Emodin 0.39 μM, Exp 1-4) was 100%, the remaining activity at 0.78125 µM (DPP4 [6]; 0.5 h, Emodin 0.78125 μM, Exp 1-4) was 104% and the remaining activity at 1.5625 µM (DPP4 [6]; 0.5 h, Emodin 1.5625 μM, Exp 1-4) was 97.8%. It also gave a remaining activity at 3.125 µM (DPP4 [6]; 0.5 h, Emodin 3.125 μM, Exp 1-4) of 83.5%, a remaining activity at 12.5 µM (DPP4 [6]; 0.5 h, Emodin 12.5 μM, Exp 1-4) of 37% and a remaining activity at 25 µM (DPP4 [6]; 0.5 h, Emodin 25 μM, Exp 1-4) of 25.1%. The remaining activity at 100 µM (DPP4 [6]; 0.5 h, Emodin 100 μM, Exp 1-4) was 3.77%, the Ki (DPP4 [6]; DPP4, means ± SE) was 850 ± 60 nM and the IC50 (DPP4 [6]; in vitro, means ± SE, read-out: IC50 of DPP4 Inhibition) was 5.7 µM and 5.76 µM. The “plasma DPP4 activity, raw signal” value (plasma DPP4 activity; 3 mg/kg P.O., time 1 h) was 213620 and 121520 and 101880, the “plasma DPP4 activity, raw signal” value (plasma DPP4 activity; 10 mg/kg P.O., time 0.5 h) was 241067 and 195640 and 202693 and the “DPP4 activity, raw signal” value (plasma DPP4 activity; 30 mg/kg P.O., 0 hours (baseline)) was 3401200 and 3668100 and 3319500 and 3595400 and 3453300. The “DPP4 activity, raw signal” value (plasma DPP4 activity; 30 mg/kg P.O., 1 hours) was 3125000 and 3575300 and 2433200 and 3311900 and 2854200, the “DPP4 activity, raw signal” value (plasma DPP4 activity; 30 mg/kg P.O., 2 hours) was 3363400 and 2959900 and 2928700 and 2749100 and the “DPP4 activity, raw signal” value (plasma DPP4 activity; 30 mg/kg P.O., 4 hours) was 3275000 and 2989300 and 2592200 and 2835500 and 2877800. For the same compound, the “DPP4 activity, raw signal” value (plasma DPP4 activity; 30 mg/kg P.O., 8 hours) was 3489100 and 3461100 and 2912800 and 3032000 and 2847400, the “plasma DPP4 activity, raw signal” value (plasma DPP4 activity; 30 mg/kg P.O., time 2 h) was 196547 and 112320 and 158453 and the “plasma DPP4 activity, raw signal” value (plasma DPP4 activity; 30 mg/kg P.O., time 4 h) was 339907 and 323187 and 357187. The “DPP4 activity in dialysis assay” value (DPP4 [7]) was 55 % of DMSO and 58 % of DMSO and 62 % of DMSO and the “DPP4 activity in dialysis assay, raw signal” value (DPP4 [7]) was 2750000 RLU and 2900000 RLU and 3100000 RLU.
